Measurements taken from patent US20220389047A1, “O-GLCNACYLATED PROTEIN-LIKE SUBSTANCE AND FIBROSIS THERAPEUTIC DRUG CONTAINING SAME” (KYUSHU UNIVERSITY, NATIONAL UNIVERSITY CORPORATION, priority 2019, published 2022).

How the values were obtained:
NHDF GDF15 = test: Western blotting of GDF15 expression in NHDF; assay type: cell-based, human; conditions: 50 μg/mL, 24 hours, versus control with nothing added
Description: 50 μg/mL of the O-GlcNAcylated protein-like substance, the AC-GlcNAc monomer, or N-acetylglucosamine (GlcNAc) prepared in Polymerization Examples 1 to 5 was added to NHDF, and incubation was performed for 24 hours. After the incubation, the expression of NHDF GDF15 was examined by Western blotting. Furthermore, the control was one to which nothing was added.
Furthermore, 10 μg/mL, 50 μg/mL, and 100 μg/mL of the O-GlcNAcylated protein-like substances (AC-GlcNAc10, mass-average molecular weight: 4,000, number-average molecular weight: 3,100) prepared in Polymerization Example 1 were each added to NHDF, and incubation was performed for 24 hours. After the incubation, the expression of NHDF GDF15 was observed by Western blotting. Furthermore, the control was one to which nothing was added.

NHDF = test: Chemotaxis of NHDF under agarose gel containing the substance; assay type: cell-based, human; conditions: FIG. 10, comparison of polymer, monomer, GlcNAc and PBS
Description: Using AC-GlcNAc (10-mer) as an O-GlcNAcylated protein-like substance, 250 μg/mL AC-GlcNAc (10-mer) was mixed with an agarose gel to prepare an O-GlcNAcylated protein-like substance-containing agarose gel. In addition, a PBS-containing agarose gel was prepared using PBS instead of the O-GlcNAcylated protein-like substance. A glass plate was placed in a petri dish, each agarose gel was added dropwise onto the glass plate, NHDF was further seeded on the entire glass plate, and incubation was performed for one day.
Next, agarose gels having blending amounts of 50 μg/mL, 100 μg/mL, and 250 μg/mL of the O-GlcNAcylated protein-like substance were prepared, and the chemotaxis of NHDF was evaluated in the same manner as above. […]
Next, the chemotaxis of NHDF by an O-GlcNAcylated protein-like substance was evaluated. The materials used were the O-GlcNAcylated protein-like substance prepared in Polymerization Example 1, the AC-GlcNAc monomer prepared in Polymerization Example 5, and N-acetylglucosamine (GlcNAc) and PBS used in Example 2, and the chemotaxis of NHDF was evaluated in the same manner as above. […]
Next, it was evaluated by the same method as above whether or not there was a difference in the chemotaxis of NHDF due to the difference in the degree of polymerization of the O-GlcNAcylated protein-like substance. […]

SMILES | expression of GDF15 (Western blotting) (NHDF GDF15) | invasion of cells under the agarose gel (NHDF)
CC(=O)N[C@H]1C(O)O[C@H](CO)[C@@H](O)[C@@H]1O (stereo partly shown) [GlcNAc, N-acetylglucosamine] | almost the same effect as the control | cells invaded under the agarose gel only with the O-GlcNAcylated protein-like substance of Polymerization Example 1
C=CC(=O)OCCC(=O)NC1OC(CO)[C@@H](O)C(O)C1NC(C)=O (stereo partly shown) [AC-GlcNAc monomer] | almost the same effect as the control | cells invaded under the agarose gel only with the O-GlcNAcylated protein-like substance of Polymerization Example 1
